Test results: patent US12357695B2, “Peptides and nanoparticles for intracellular delivery of molecules” (AADIGEN, LLC, priority 2019, dated 2025)
Entries after “also recorded” stand apart in the source; their conditions may differ. Square brackets hold non-standard residues; d marks the D form. Primed or numbered codes have the meaning given here. PEG7′ = (PEG)7 moiety; βAla = NCCC(=O)O

Columns and labels:
[1] = test system: 293T cells; test: Cellular delivery of pGL4 plasmid DNA expressing Luciferase, luciferase expression at 72 hrs; assay type: cell-based; settings: 50% or 100% ADGN-100 PEG, pGL4 plasmid 0.15 μg
Method: FIGS. 2A-2C show luciferase expression in 293T cells treated with ADGN-peptide/pGL4 plasmid DNA complexes. 293T cells cultured in 48 well plates were transfected with ADGN-peptide nanoparticles. ADGN-100, ADGN-106, ADGN-100RI, ADGN-106RI, ADGN-100 Stearyl, ADGN-Hydro1, ADGN-Hydro2, ADGN-Hydro3, ADGN-Hydro4, ADGN-Hydro5, and ADGN-Hydro6 containing 0.17 μg pGL4 plasmid DNA were formed in sterile water, diluted in sterile water containing 5% Sucrose. ADGN-peptide nanoparticles were evaluated prior (FIG. 2A) and after filtration with 0.45 μm PES filters (FIG. 2B). FIG. 2C impact of peGylated ADGN-100 on the transfection efficiency. pGL4 luc plasmid (0.15 μg) were associated to ADGN-100 solution containing 5 to 50% of ADGN-100-PEG or to ADGN-100PEG. ADGN/pGL4 plasmid DNA complexes were incubated for 3 hrs in the presence of either 25% serum or heparan sulfate prior transfection. Luciferase expression was monitored 72 hours post transfection and results were reported as RLU (luminescence):mg of protein.
Complex formation with plasmid DNA. The following protocols were used for the transfection of 2-5 106 Cells or Cells at confluency of about 70-80% cultured in 24 well plates. ADGN peptide/plasmid DNA pGL4 particles were prepared at a 20:1 molar ratio of ADGN-Peptide/pGL4. using (0.2 μg). PGL4 plasmid (0.15 μg) was diluted in 20 μl of sterile water (GIBCO) at room temperature. 10 μl Final Peptide Solution was added to obtain a total volume of 20 μl. The volume was adjusted to 50 μl with sterile water and was mixed gently with vortex 1 min low speed and incubated 30 min at room temperature. Then the volume was made up to 100 μl by adding sterile water containing 5% sucrose, and the solution was mixed gently with vortex 1 min low speed and incubate 5 min at 37° C. and then was proceeded to cell transfection.
(§1) Transfection protocol. Protocol is reported for 24 well plate format. Cells were cultured in Dulbecco's Modified Eagle's Medium (DMEM), supplemented with 2 mM glutamine, 1% antibiotics (streptomycin 10,000 μg/mL, penicillin, 10,000 IU/mL) and 10% (w/v) foetal calf serum (FCS), at 37° C. in a humidified atmosphere containing 5% CO2. 24 well plates seeded with 150,000 cells the day prior to transfection were grown to 50-60% confluence and set up to be at about 70% confluences at the time of transfection. Before transfection, cells were washed twice with DMEM. Cells were then overlaid with 0.1 ml of ADGN-peptide/cargo complex solution containing 0.25 μg mRNA, 0.15 μg plasmid DNA or 10-25 nM siRNA, mixed gently, and incubated for 10 min at 37° C. 0.2 mL of fresh DMEM, were added and cells were incubated for 20 min at 37° C. 1 mL of complete DMEM containing 15% FCS were then added in order to reach a final FCS concentration of 10%, without removing the overlay of ADGN-peptide/cargo complexes. Cells were returned to the incubator (37° C., 5% CO2) and 72 hrs post transfection.
ADGN-peptides were evaluated for cellular delivery of pGL4 plasmid DNA expressing Luciferase in 293T cells. Luc pGL4 plasmid (0.15 μg) in sterile water (GIBCO) were mixed with ADGN-100, ADGN-100RI, ADGN-106, ADGN-106RI, ADGN-100 Stearyl, ADGN-100Hydro1, ADGN-100Hydro2, ADGN-100Hydro4, ADGN-100Hydro3, ADGN-100Hydro5 and ADGN-100Hydro6. ADGN-peptide/mRNA complexes were filtered with 0.45 μm PES filter. In order to evaluate the stability of the ADGN/pGL4 plasmid complexes in high serum and cell culture conditions, the complexes were incubated for 3 hrs in the presence of either 25% serum or heparan sulfate prior transfection, then 293T cells were transfected and Luciferase expression was monitored at 72 hrs.

[2] = test system: A375/Luc cells; test: Cellular delivery of siRNA targeting Luciferase, luciferase silencing at 48 hrs; assay type: cell-based; settings: 50% or 100% ADGN-100 PEG
Method: FIGS. 3A-3C show luciferase expression in A375/Luc cells treated with ADGN-peptide/siRNA complexes. A375/Luc cells cultured in 48 well plates were transfected with ADGN-peptide nanoparticles. ADGN-100, ADGN-106, ADGN-100RI, ADGN-106RI, ADGN-100 Stearyl, ADGN-Hydro1, ADGN-Hydro2, ADGN-Hydro3, ADGN-Hydro4, ADGN-Hydro5, ADGN-Hydro6 and ADGN-peptide/ADGN-100PEG 10% nanoparticles containing 10 nM or 25 nM siRNA were formed in sterile water, diluted in sterile water containing 5% Sucrose and filtered with 0.45 μm PES filters. FIG. 3C impact of peGylated ADGN-100 on the transfection efficiency. siRNA Luc (10 nM and 25 nM) were associated to ADGN-100 solution containing 5 to 50% of ADGN-100-PEG or to ADGN-100PEG. ADGN/siRNA complexes were incubated for 3 hrs in the presence of 25% serum prior transfection. Luciferase expression was monitored 48 hours post transfection and results were reported as RLU (luminescence):mg of protein.
Complex formation with siRNA. The following protocols were used for the transfection of 2-5 106 Cells or Cells at confluency of about 70-80% cultured in 24 well plates. ADGN peptide/siRNA Luc particles were prepared at a 20:1 molar ratio of ADGN-Peptide/pGL4. using 20 nM siRNA. The siRNA duplex (10 and 25 nM) was diluted in 20 μl of sterile water (GIBCO) at room temperature. 1.5 or 3 μl of a Final Peptide Solution (55 μM) was added to obtain a total volume of 20 μl. The volume was adjusted to 50 μl with sterile water and was mixed gently with vortex 1 min low speed and incubated 30 min at room temperature. Then the volume was made up to 100 μl by adding sterile water containing 5% sucrose, and the solution was mixed gently with vortex 1 min low speed and incubate 5 min at 37° C. and then was proceeded to cell transfection.
as §1
ADGN-peptides were evaluated for cellular delivery of siRNA duplex targeting Luciferase in A375/Luc cells. siRNA targeting luciferase (10 and 25 nM) in sterile water (GIBCO) were mixed with ADGN-100, ADGN-100RI, ADGN-106, ADGN-106RI, ADGN-100 Stearyl, ADGN-100Hydro1, ADGN-100Hydro2, ADGN-100Hydro4, ADGN-100Hydro3, ADGN-100Hydro5 and ADGN-100Hydro6. ADGN-peptide/siRNA complexes were filtered with 0.45 μm PES filter. In order to evaluate the stability of the ADGN/siRNA complexes in high serum conditions, the complexes were incubated for 3 hrs in the presence of 25% serum, then A375/Luc cells were transfected and Luciferase expression was monitored at 48 hrs.

[3] = test system: mice; test: In vivo delivery of Luciferase mRNA, intravenous administration, bioluminescence imaging; settings: 5 μg Luc mRNA, single dose
Method: FIGS. 4A-4D show the potency of ADGN-peptide variants for in vivo delivery of Luciferase mRNA via intravenous administration in mice. ADGN-peptide/luc mRNA particles containing 5 μg mRNA were formed in sterile water, and then diluted in 5% sucrose. Mice received IV injection of 100 μl ADGN-peptide/mRNA complexes. mRNA LUC expression was monitored by bioluminescence imaging after 12 h, 24 h, 48 h and 72 h. FIG. 4B show bioluminescence imaging at 24 hr in control and treated groups. Semi-quantitative data of luciferase signal in the liver (C) and in the lung (D) were obtained using the manufacturer's software (Living Image; PerkinElmer). Results were then expressed as values relative to day 0.
Stable ADGN-peptides/mRNA were evaluated for in vivo delivery of Luciferase mRNA via intravenous and intramuscular administrations. Animals were treated with single dose of 5 moU modified Luc mRNA of 5 μg. 5 moU modified Luc mRNA (5 μg) in sterile water (GIBCO) were mixed with ADGN peptide (sterile water), volume for each sample was adjusted to 100 μl, with sterile water containing 5% Sucrose. Samples were mixed gently with vortex for 1 minute at low speed and incubated for 30 min at room temperature. Samples were filtered on 0.45 μm PES filters prior administration. For IV administration Mice received 100 μl intravenous (IV) injection of either ADGN-106/mRNA, ADGN-100/mRNA, ADGN-106RI/mRNA, ADGN-100-stearyl/mRNA, ADGN-100Hydro1/mRNA, ADGN-100Hydro2 or ADGN/mRNA complexes containing 10% of ADGN-100PEG (3 animals per group). As control, mice from group 3 (2 animals per group) received IV injection of 100 μl of naked 5 moU modified Luc mRNA (5 μg). For IM administration, mice received 25 μl (5 μg mRNA) IV injection of either ADGN-100/mRNA, ADGN-106/mRNA, ADGN-106RI/mRNA or ADGN/mRNA complexes containing 10% or 20% of ADGN-100PEG (2 animals per group). As control, mice from group 3 (2 animals per group) received IV injection of 25 μl of naked 5 moU modified Luc mRNA (5 μg).
mRNA Luc expression was monitored by bioluminescence. Bioluminescence imaging was performed after 12, 24, 48 and 72 hrs. Mice received an i.p. injection of 150 μg/g luciferin for noninvasive bioluminescence imaging (IVIS Kinetic; PerkinElmer, Waltham, MA, USA).

[4] = test system: mice; test: In vivo delivery of pGL4 plasmid DNA, intravenous administration, bioluminescence imaging; settings: 5 μg pGL4 plasmid
Method: FIGS. 6A-6C show the potency of ADGN-peptide variants for in vivo delivery of Luciferase expressing plasmid pGL4 via intravenous administration in mice. ADGN-peptide/pGL4 particles containing 5 μg plasmid DNA were formed in sterile water, and then diluted in 5% sucrose. Mice received IV injection of 100 μl ADGN-peptide/plasmid complexes. pGL4 Luciferase expression was monitored by bioluminescence imaging after 12 h, 24h, 48h and 72h. […] Results were then expressed as values relative to day 0.
(§2) Stable ADGN-peptides/pGL4.11 DNA were evaluated for in vivo delivery of Luciferase mRNA via intravenous and intramuscular administrations. Animals were treated with single dose of pGL4.11 plasmid DNA of 5 μg. via IV and 2.5 μg via intramuscular administration.
pGL4.11 DNA plasmid (5 μg) in sterile water (GIBCO) were mixed with ADGN peptide (sterile water), volume for each sample was adjusted to 100 μl, with sterile water containing 5% Sucrose. Samples were mixed gently with vortex for 1 minute at low speed and incubated for 30 min at room temperature. Samples were filtered on 0.45 μm PES filters prior administration. For IV administration Mice received 100 μl IV injection of either ADGN-106/pGL4, ADGN-100/pGL4, ADGN-100RI/pGL4, ADGN-100-stearyl/PGL4, ADGN-100Hydro1/PGL4, ADGN-100Hydro2/PGL4, ADGN100 Hydro6/PGL4 or ADGN/PGL4 complexes containing 10% or 20% of ADGN-100PEG (3 animals per group). As control, mice from group 3 (2 animals per group) received IV injection of 100 μl of naked pGL4 plasmids (5 μg).
(§3) Luciferase expression was monitored by bioluminescence. Bioluminescence imaging was performed after 12, 24, 48 and 72 hrs. Mice received an i.p. injection of 150 μg/g luciferin for noninvasive bioluminescence imaging (IVIS Kinetic; PerkinElmer, Waltham, MA, USA).

[5] = test system: mice; test: In vivo delivery of pGL4 plasmid DNA, intramuscular administration, bioluminescence imaging; settings: IM, 2.5 μg pGL4 plasmid
Method: FIGS. 7A-7B show the potency of ADGN-peptide variants for in vivo delivery of Luciferase expressing plasmid pGL4 via intramuscular administration in mice. ADGN-peptide/pGL4 luc particles containing 2.5 μg plasmid DNA were formed in sterile water, and then diluted in 5% sucrose. Mice received IV injection of 25 μl ADGN-peptide/pGL4 complexes. Luciferase expression was monitored by bioluminescence imaging after 12 h, 24 h and 48h (A). FIG. 7B show bioluminescence imaging at 24 hr in control and treated groups.
as §2
For IM administration, mice received 25 μl (2.5 μg of pGL4 plasmid) IV injection of either ADGN-100/PGL4, ADGN-106/PGL4, ADGN-100RI/PGL4, ADGN-100hydro1/PGL4, ADGN-100hydro6/PGL4, ADGN-100 stearyl/PGL4 or ADGN-100/PGL4 complexes containing 10% or 20% of ADGN-100PEG (2 animals per group). As control, mice from group 3 (2 animals per group) received IV injection of 25 μl of naked PGL4 plasmid (2.5 μg).
as §3

[6] = test system: mice or rat models; test: Summary of cargo delivery to targeted organ (Table 1); assay type: in vivo; settings: cargoes and route (IV, IM, SQ, NB) per peptide as listed in Table 1
Description: Table 1 lists a summary of cell-penetrating peptides that have been proven successful in delivering various cargo molecules to on or more targeted organ (e.g., by intravenous (IV), intramuscular (IM), or subcutaneous (SQ) administration, or intratraccheal instillation or nebulization (NB)) in mice or rat models.

| Substance | reduction of level of Luciferase expression [1] [%] | reduction of transfection efficiency [2] [%] | mRNA / luciferase expression and tissues [3] | luciferase expression and tissues [4] | luciferase expression [5] | Targeted Organ [6] |
| --- | --- | --- | --- | --- | --- | --- |
| Ac-(PEG)7-βA-KWRSALWRWRLWRVRSWSR-NH2 ({Ac-PEG7′}-[βAla]KWRSALWRWRLWRVRSWSR-NH2) [ADGN-100-PEG7] | 80 | 80 |  |  |  |  |
| Ac-YIGSR-(G)4-KWRSALWRWRLWRVRSWSR-NH2 (Ac-YIGSRGGGGKWRSALWRWRLWRVRSWSR-NH2) [ADGN-100-Hydro-1] |  |  | negligible luciferase expression | negligible luciferase expression | no significant expression | Lung/Kidney/; also recorded: Liver |
